Like-named read-outs stand apart in the source and are kept apart here.
Key:
human GPR17 (hGPR17) [1] = target: T1, human GPR17 (hGPR17) (Homo sapiens, UniProt Q13304); assay: calcium mobilization assay in CHO-GPR17 cells; format: cell-based; set-up: expressed in transfected cells; conditions: for % of response of compound (± SEM) CHO-GPR17 cells: normalised to response of 0.3 μM RA-II-150; for pEC50 (± SEM) CHO-GPR17: calcium mobilization, CHO-GPR17 cells
Text: In order to investigate potential differences in receptor signalling as a function of the cellular background, GPR17 was additionally expressed and analysed in a further cell system. Therefore, a recombinant Chinese hamster ovary (CHO) cell line stably expressing GPR17 was generated using the Flp-In™ T-Rex™ expression system. Here, expression of GPR17 was induced after adding doxycycline.
(§1) In order to detect the released calcium, cells are loaded with a cell membrane permeable dye, which is converted within the cell into its active form by the cleavage of ester bonds. The active form of the dye binds the released calcium. The fluorescence properties of the dye change after calcium binds to the dye. These changes can be detected automatically and represent the ligand-dependent receptor activation. Cells from two confluently grown (80 to 90%) 175 cm^2 cell culture flasks were needed for a calcium assay using the NOVOstar microplate reader (approximately 150,000 cells per well). Cells were harvested after removing the medium, washed once with PBS buffer and detached using a trypsin/EDTA solution. After incubation for 45 min at 37° C. and 5% CO2, the cells were pelleted by centrifugation (5 min, 200 g). […] The cells were washed twice with 1 ml of KHB buffer (three centrifugation steps, each for 15 sec at 2700 rpm) before being seeded in a 96-well microplate in a total volume of 180 μl. A 10-fold concentrated agonist solution (35 μl) was added to another 96-well microplate with a V-profile. Both plates were placed into the NOVOstar microplate reader and incubated there for 20 min. After incubation, the required gain was determined by the microplate so that the fluorescence background of the cells was between 38,000 and 42,000 fluorescence units. This background is an optimal range for starting the measurement, because it is in the middle of the reader's detection range. Normally, the background in each well of a microplate should be the same. The background was determined by performing a so-called validation. A validation is performed to detect irregularities in cell densities between different wells, fluorescence or absorption properties as well as unspecific antagonist effects. […] Afterwards, 20 μl of agonist were injected from the source plate to the measurement plate by the injector unit of the NOVOstar, and the increase in fluorescence was determined as a function of the calcium efflux resulting from receptor stimulation.

human GPR17 (hGPR17) [2] = target: T1, human GPR17 (hGPR17); assay: calcium mobilization assay in 1321N1-GPR17 cells; format: cell-based; set-up: expressed in transfected cells; host or cells: 1321N1 human astrocytoma cells, retroviral transfection with pLXSN-GPR17, G418 selection
Protocol: The sequence for the human GPR17 (short isoform) was subcloned into the vector pLXSN (Clontech Laboratories, CA 94043, USA), which can be used for retroviral transfection of the human astrocytoma cell line 1321N1. […] For the retroviral transfection of 1321N1 astrocytoma cells the packaging cell line GP+envAM12 was cultivated in HXM medium (50 ml of foetal calf serum (FCS), 5 ml of penicillin G/streptomycin solution (final concentration 100 U/ml penicillin, 100 μg/ml streptomycin), 1% ultra glutamine, 0.75 ml of hypoxanthine (10 mg/ml), 12.5 ml of xanthine (10 mg/ml), 1.25 ml of mycophenolic acid (10 mg/ml) and 2 ml of hygromycin B (50 mg/ml) were added to 500 ml DMEM). One day before transfection 1.5×10^6 cells were seeded and incubated overnight at 37° C., 5% CO2 and 95% humidity in a 25 cm^2 cell culture flask containing medium without antibiotics. For at least two hours before transfection the medium was exchanged for 6.25 ml DMEM medium without any additive. Two solutions were prepared for the transfection. The first solution consisted of 25 μl of Lipofectamine™ 2000 (final concentration 2%) and 600 μl of DMEM medium without any additives while the second solution was composed of 6.25 μg of pLXSN-GPR17 and 3.75 μg of pLXSN-VSV-G vector DNA. The second solution was filled up with DMEM medium without any additives. Solution one was incubated for 5 min at room temperature before both solutions were combined and incubated for 20 min, also at room temperature. Afterwards the sample was added to the packaging cell line and incubated for 12-15 h. The medium was then replaced with 3 ml of fresh medium containing 30 μl of a 500 mM sodium butyrate solution. The virus production was stimulated by sodium butyrate and took place by incubation for 48 h at 32° C. and 95% humidity. One day before infection 500,000 of 1321N1 astrocytoma cells were seeded in a 25 cm^2 cell culture flask. After 48 h of virus production, the retroviruses were harvested and sterilised by filtration through a filter with a pore size of […]. The host cell medium was replaced with the sterilized virus supernatant containing 6 μl of polybrene solution (4 mg/ml) and the infection of the host cells took place for further 48 h of incubation at 37° C., 95% humidity and 5% CO2. After incubation, the transfected cells were transferred to a 175 cm^2 cell culture flask and selected by adding medium containing G418. The efficiency of infection and stable transfection using this method was up to 95%.
PLC activation and IP3 accumulation result in a release of calcium from intracellular calcium stores, for example the endoplasmic reticulum. In order to detect the released calcium, cells are loaded with a cell membrane permeable dye, which is converted within the cell into its active form by the cleavage of ester bonds. The active form of the dye binds the released calcium. The fluorescence properties of the dye change after calcium binds to the dye. These changes can be detected automatically and represent the ligand-dependent receptor activation. Cells from two confluently grown (80 to 90%) 175 cm^2 cell culture flasks were needed for a calcium assay using the NOVOstar microplate reader (approximately 150,000 cells per well). Cells were harvested after removing the medium, washed once with PBS buffer and detached using a trypsin/EDTA solution. After incubation for 45 min at 37° C. and 5% CO2, the cells were pelleted by centrifugation (5 min, 200 g). Cells were resuspended in 994 μl of Krebs HEPES buffer (KHB; 118.6 mM NaCl, 4.7 mM KCl, 1.2 mM KH2PO4, 4.2 mM NaHCO3, 11.7 mM D-glucose, 10 mM HEPES (free acid), 1.3 mM MgSO4 and 1.2 mM CaCl2, pH 7.4) and loaded in the absence of light with fluorescent, namely Oregon Green 488 BAPTA-1/AM dye, by incubating them for one hour at 28° C. and 700 rpm in an Eppendorf Thermomixer in the presence of Pluronic F-127. Pluronic F-127 was supplemented so that the cells could better absorb the dye. […]

Native 1321N1 cells = assay: calcium mobilization assay, unspecific effects on native 1321N1 cells; format: cell-based, human; conditions: normalised to response of 100 μM carbachol
Text: as §1

CHO-K1 cells = assay: calcium mobilization assay, unspecific effects on native CHO-K1 cells; format: cell-based, Chinese hamster; conditions: normalised to response of 100 μM ATP
Text: as §1

solubility in solvents = format: physicochemical
[3] = 30 μM compound, normalised to response of 30 μM RA-II-150
[4] = calcium mobilization, 1321N1-GPR17 cells

T1 sequence (Q13304 29-367): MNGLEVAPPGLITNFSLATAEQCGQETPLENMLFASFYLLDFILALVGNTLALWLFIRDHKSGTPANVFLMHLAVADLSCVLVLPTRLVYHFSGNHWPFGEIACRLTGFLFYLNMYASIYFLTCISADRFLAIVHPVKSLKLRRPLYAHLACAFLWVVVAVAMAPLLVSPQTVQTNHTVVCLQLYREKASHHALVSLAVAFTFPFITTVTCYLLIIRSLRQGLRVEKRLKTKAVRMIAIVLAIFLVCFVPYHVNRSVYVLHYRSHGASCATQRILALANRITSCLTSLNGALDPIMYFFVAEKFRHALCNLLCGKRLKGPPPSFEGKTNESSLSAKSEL

Compound	% of response of 30 μM compound (± SEM) 1321N1-GPR17 (human GPR17 (hGPR17) [2]; [3])	pEC50 (± SEM) CHO-GPR17 (human GPR17 (hGPR17) [1])	pEC50 (± SEM) 1321N1-GPR17 (human GPR17 (hGPR17) [2]; [4])	% response of 30 μM compound (± SEM) Native 1321N1 cells (Native 1321N1 cells)	also measured
O=C(O)CCc1c(C(=O)O)n(CCC(=O)O)c2cc(Cl)cc(Cl)c12	80 (6) %	–	–	1 (1)/1 (1) (1 μM compound) %	% of response of compound (± SEM) CHO-GPR17 cells (human GPR17 (hGPR17) [1]; 1 μM compound): 85 (5) %; % response of compound (± SEM) CHO-K1 cells (CHO-K1 cells; 1 μM compound): 1 (1)/1 (1) (1 μM compound) %
O=C(O)CCc1c(C(=O)O)[nH]c2cc(Cl)ccc12 [3-(2-Carboxyethyl)-6-chloro-1H-indole-2-carboxylic acid]	84 (6) %	7.69 (0.10)	5.43 (0.14)	4 (3) %	% of response of compound (± SEM) CHO-GPR17 cells (human GPR17 (hGPR17) [1]; 1 μM compound): 94 (7) %; % response of compound (± SEM) CHO-K1 cells (CHO-K1 cells; 0.3 μM compound): 1 (2) %
O=C(O)CCc1c(C(=O)O)[nH]c2cc(F)cc(F)c12 [3-(2-Carboxyethyl)-4,6-difluoro-1H-indole-2-carboxylic acid]	77 (2) %	6.79 (0.10)	5.13 (0.13)	2 (1) %	% of response of compound (± SEM) CHO-GPR17 cells (human GPR17 (hGPR17) [1]; 3 μM compound): 97 (5) %; % response of compound (± SEM) CHO-K1 cells (CHO-K1 cells; 3 μM compound): 1 (2) %
O=C(O)CCc1c(C(=O)O)[nH]c2cc(Cl)cc(Cl)c12 [RA-II-150, 3-(2-carboxyethyl)-4,6-dichloro-1H-indole-2-carboxylic acid]	–	6.09 (0.06)/ 8.20 (0.08)	–	0 (3) %	% of response of compound (± SEM) CHO-GPR17 cells (human GPR17 (hGPR17) [1]; 0.3 μM compound): 100 (0)/100 (0) (0.3 μM compound) %; % of response of 30 μM compound (± SEM) 1321N1-GPR17 (human GPR17 (hGPR17) [2]): 100 (0)/100 (0) (0.3 μM compound) %; pEC50 (± SEM) 1321N1-GPR17 (human GPR17 (hGPR17) [2]): 6.09 (0.06)/ 8.20 (0.08); % response of compound (± SEM) CHO-K1 cells (CHO-K1 cells; 0.1 μM compound): 0 (1) %
O=C(O)CCc1c(C(=O)O)[nH]c2cc(Br)cc(Br)c12 [3-(2-Carboxyethyl)-4,6-dibromo-1H-indole-2-carboxylic acid]	–	7.87 (0.16)	6.71 (0.01)	0 (1) %	% of response of compound (± SEM) CHO-GPR17 cells (human GPR17 (hGPR17) [1]; 0.3 μM compound): 89 (2) %; % of response of compound (± SEM) 1321N1-GPR17 (human GPR17 (hGPR17) [2]; 10 μM compound, normalised to response of 30 μM RA-II-150): 106 (1) %; solubility in methanol, ethanol and ethyl acetate (solubility in solvents; methanol, ethanol, ethyl acetate): well soluble; solubility in petrol ether, water, hexane (solubility in solvents; petrol ether, water, hexane): slightly soluble; % response of compound (± SEM) CHO-K1 cells (CHO-K1 cells; 0.3 μM compound): 0 (0) %
O=C(O)CCc1c(C(=O)O)[nH]c2cc(I)cc(I)c12 [3-(2-Carboxyethyl)-4,6-diiodo-1H-indole-2-carboxylic acid]	–	–	5.32	–	–
Cc1cc(C)c2c(CCC(=O)O)c(C(=O)O)[nH]c2c1 [3-(2-Carboxyethyl)-4,6-dimethyl-1H-indole-2-carboxylic acid]	76 (6) %	6.47 (0.05)	4.86 (0.10)	1 (1)/1 (1) (1 μM compound) %	% of response of compound (± SEM) CHO-GPR17 cells (human GPR17 (hGPR17) [1]; 1 μM compound): 68 (2) %; % response of compound (± SEM) CHO-K1 cells (CHO-K1 cells; 1 μM compound): 1 (1)/1 (1) (1 μM compound) %

Further lines, with some results ahead:

% of response of 30 μM compound (± SEM) 1321N1-GPR17 (human GPR17 (hGPR17) [2]; [3])	pEC50 (± SEM) CHO-GPR17 (human GPR17 (hGPR17) [1])	pEC50 (± SEM) 1321N1-GPR17 (human GPR17 (hGPR17) [2]; [4])	Compound	% response of 30 μM compound (± SEM) Native 1321N1 cells (Native 1321N1 cells)	also measured
–	–	6.14	O=C(O)CCc1c(C(=O)O)[nH]c2cc(-c3ccccc3)ccc12 [3-(2-Carboxyethyl)-6-phenyl-1H-indole-2-carboxylic acid]	–	–
–	–	6.15	O=C(O)CCc1c(C(=O)O)[nH]c2cc(I)ccc12 [3-(2-Carboxyethyl)-6-iodo-1H-indole-2-carboxylic acid]	–	–
–	–	5.50	O=C(O)CCc1c(C(=O)O)[nH]c2cc(Br)ccc12 [3-(2-Carboxyethyl)-6-bromo-1H-indole-2-carboxylic acid]	–	–
–	–	5.52	O=C(O)CCc1c(C(=O)O)[nH]c2cc(-c3ccccc3)cc(-c3ccccc3)c12 [3-(2-Carboxyethyl)-4,6-diphenyl-1H-indole-2-carboxylic acid]	–	–

— US8623593B1, “GPR 17 agonists and screening assay” (Rheinische Friedrich-Wilhelms-Universität Bonn, priority 2011, dated 2014)
